Results from patent publication US11771738B2 (Zoetis Services LLC, priority 2018, dated 2023).
Where two headings read alike, the source gives them in different places. Marks after values point to notes of the source that are not given here.

Assays:
Type in all cases: cell-based
[1] = tested on: microfilariae of Dirofilaria immitis; assay: Dirofilaria immitis, Microfilaria (DiMf) In Vitro Assay; conditions: for minimal effective concentration: Dirofilaria immitis, 72 h, read-out: DiMf MED, Minimum Effective Dose, D. immitis microfilariae motility, in vitro
D. immitis L4 larvae = assay: Dirofilaria immitis, L4 Stage (DiL4) In Vitro Assay; conditions: for DiMf/DiL4: larval stage selectivity, ratio of DiMf MED to DiL4 MED; for minimal effective concentration: Dirofilaria immitis, 72 h, read-out: DiL4 MED, Minimum Effective Dose, D. immitis L4 larvae motility, in vitro
[2] = tested on: third stage larvae of Haemonchus contortus; assay: Haemonchus contortus, Larvae Stage 3 (HcL3) In Vitro Assay; conditions: for minimal effective concentration: Haemonchus contortus, 96 h
[3] = read-out: HcL3 MED, Haemonchus contortus third stage larvae in vitro, class mark appended to the Ex # in Table 3
[4] = read-out: HcL3 MED, Minimum Effective Dose, H. contortus third stage larvae, approximately 96 hours

In the case of `COc1cccnc1Cc1ccc(C[C@H]2OC(=O)[C@H](CC(C)C)N(C)C(=O)[C@@H](C)OC(=O)[C@H](CC(C)C)N(C)C(=O)[C@@H](Cc3ccc(Cc4ncccc4OC)cc3)OC(=O)[C@H](CC(C)C)N(C)C(=O)[C@@H](C)OC(=O)[C@H](CC(C)C)N(C)C2=O)cc1` [Example 3-215], the “DiMf MED” value ([1]; Minimum Effective Dose, D. immitis microfilariae motility, in vitro) is reported as 0.7 nM, the “DiL4 MED” value (D. immitis L4 larvae; Minimum Effective Dose, D. immitis L4 larvae motility, in vitro) is reported as less than 0.2 nM and the DiMf/DiL4 (D. immitis L4 larvae) is reported as greater than 3.5. The “HcL3 MED” value ([2]; Haemonchus contortus third stage larvae in vitro, class mark appended to the Ex # in Table 3) was 3-215* (Examples with an asterisk (*) have HcL3 MED values≤1 μM) and the “HcL3 MED” value ([2]; Minimum Effective Dose, H. contortus third stage larvae, approximately 96 hours) was 1 µM.

With `COc1ccnc(Cc2ccc(C[C@H]3OC(=O)[C@H](CC(C)C)N(C)C(=O)[C@@H](C)OC(=O)[C@H](CC(C)C)N(C)C(=O)[C@@H](Cc4ccc(Cc5nccc(OC)n5)cc4)OC(=O)[C@H](CC(C)C)N(C)C(=O)[C@@H](C)OC(=O)[C@H](CC(C)C)N(C)C3=O)cc2)n1` [Example 3-217, (3S,6R,9S,12R,15S,18R,21S,24R)-3,9,15,21-tetraisobutyl-6,18-bis(4-((4-methoxypyrimidin-2-yl)methyl)benzyl)-4,10,12,16,22,24-hexamethyl-1,7,13,19-tetraoxa-4,10,16,22-tetraazacyclotetracosan-2,5,8,11,14,17,20,23-octaone] the minimal effective concentration [1] was 0.003 µM, the minimal effective concentration (D. immitis L4 larvae) was less than 0.0007 µM and the DiMf/DiL4 (D. immitis L4 larvae) was greater than 4.3. It also gave a minimal effective concentration [2, 3] of 1 to 3.3 µM and a minimal effective concentration [2, 4] of 3.3 µM.

With `COc1cncc(Cc2ccc(C[C@H]3OC(=O)[C@H](CC(C)C)N(C)C(=O)[C@@H](C)OC(=O)[C@H](CC(C)C)N(C)C(=O)[C@@H](Cc4ccc(Cc5cncc(OC)n5)cc4)OC(=O)[C@H](CC(C)C)N(C)C(=O)[C@@H](C)OC(=O)[C@H](CC(C)C)N(C)C3=O)cc2)n1` [Example 3-218, (3S,6R,9S,12R,15S,18R,21S,24R)-3,9,15,21-tetraisobutyl-6,18-bis(4-((6-methoxypyrazin-2-yl)methyl)benzyl)-4,10,12,16,22,24-hexamethyl-1,7,13,19-tetraoxa-4,10,16,22-tetraazacyclotetracosan-2,5,8,11,14,17,20,23-octaone] the minimal effective concentration [1] was 0.01 µM, the minimal effective concentration (D. immitis L4 larvae) was 0.0008 µM and the DiMf/DiL4 (D. immitis L4 larvae) was 12.5. The minimal effective concentration [2, 4] was greater than 23 µM.

For `COc1ncccc1C(C)(F)c1ccc(C[C@H]2OC(=O)[C@H](CC(C)C)N(C)C(=O)[C@@H](C)OC(=O)[C@H](CC(C)C)N(C)C(=O)[C@@H](Cc3ccc(C(C)(F)c4cccnc4OC)cc3)OC(=O)[C@H](CC(C)C)N(C)C(=O)[C@@H](C)OC(=O)[C@H](CC(C)C)N(C)C2=O)cc1` (stereo partly drawn) [Example 3-220, (3S,6R,9S,12R,15S,18R,21S,24R)-6,18-bis(4-(1-fluoro-1-(2-methoxypyridin-3-yl)ethyl)benzyl)-3,9,15,21-tetraisobutyl-4,10,12,16,22,24-hexamethyl-1,7,13,19-tetraoxa-4,10,16,22-tetraazacyclotetracosan-2,5,8,11,14,17,20,23-octaone], the minimal effective concentration [1] was 0.005 µM, the minimal effective concentration (D. immitis L4 larvae) was 0.0007 µM and the DiMf/DiL4 (D. immitis L4 larvae) was 7.1. The minimal effective concentration [2, 4] was greater than 100 µM.

Work on `Cc1ccncc1Cc1ccc(C[C@H]2OC(=O)[C@H](CC(C)C)N(C)C(=O)[C@@H](C)OC(=O)[C@H](CC(C)C)N(C)C(=O)[C@@H](Cc3ccc(Cc4cnccc4C)cc3)OC(=O)[C@H](CC(C)C)N(C)C(=O)[C@@H](C)OC(=O)[C@H](CC(C)C)N(C)C2=O)cc1` [Example 3-223, (3S,6R,9S,12R,15S,18R,21S,24R)-3,9,15,21-tetraisobutyl-4,6,10,16,18,22-hexamethyl-12,24-bis(4-((4-methylpyridin-3-yl)methyl)benzyl)-1,7,13,19-tetraoxa-4,10,16,22-tetraazacyclotetracosan-2,5,8,11,14,17,20,23-octaone] yielded a minimal effective concentration [1] of 0.005 µM, a minimal effective concentration (D. immitis L4 larvae) of 0.0007 µM and a DiMf/DiL4 (D. immitis L4 larvae) of 7.1. For the same compound, the minimal effective concentration [2, 4] was 5.7 µM.

Work on `COc1cccc(C(C)(F)c2ccc(C[C@H]3OC(=O)[C@H](CC(C)C)N(C)C(=O)[C@@H](C)OC(=O)[C@H](CC(C)C)N(C)C(=O)[C@@H](Cc4ccc(C(C)(F)c5cccc(OC)n5)cc4)OC(=O)[C@H](CC(C)C)N(C)C(=O)[C@@H](C)OC(=O)[C@H](CC(C)C)N(C)C3=O)cc2)n1` (stereo partly drawn) [Example 3-225, (3S,6R,9S,12R,15S,18R,21S,24R)-6,18-bis(4-(1-fluoro-1-(6-methoxypyridin-2-yl)ethyl)benzyl)-3,9,15,21-tetraisobutyl-4,10,12,16,22,24-hexamethyl-1,7,13,19-tetraoxa-4,10,16,22-tetraazacyclotetracosan-2,5,8,11,14,17,20,23-octaone] yielded a minimal effective concentration [1] of 0.3 µM, a minimal effective concentration (D. immitis L4 larvae) of 0.0007 µM and a DiMf/DiL4 (D. immitis L4 larvae) of 429. For the same compound, the minimal effective concentration [2, 4] was greater than 100 µM.

Work on `CC(C)C[C@H]1C(=O)O[C@H](Cc2ccc(Cc3snnc3C(C)C)cc2)C(=O)N(C)[C@@H](CC(C)C)C(=O)O[C@H](C)C(=O)N(C)[C@@H](CC(C)C)C(=O)O[C@H](Cc2ccc(Cc3snnc3C(C)C)cc2)C(=O)N(C)[C@@H](CC(C)C)C(=O)O[C@H](C)C(=O)N1C` [Example 3-228, (3S,6R,9S,12R,15S,18R,21S,24R)-3,9,15,21-tetraisobutyl-6,18-bis(4-((4-isopropyl-1,2,3-thiadiazol-5-yl)methyl)benzyl)-4,10,12,16,22,24-hexamethyl-1,7,13,19-tetraoxa-4,10,16,22-tetraazacyclotetracosan-2,5,8,11,14,17,20,23-octaone] yielded a minimal effective concentration [1] of 0.01 µM, a minimal effective concentration (D. immitis L4 larvae) of 0.0005 µM and a DiMf/DiL4 (D. immitis L4 larvae) of 20. For the same compound, the minimal effective concentration [2, 4] was greater than 100 µM.

For `CC(C)C[C@H]1C(=O)O[C@H](Cc2ccc(Cc3cccnc3C(F)(F)F)cc2)C(=O)N(C)[C@@H](CC(C)C)C(=O)O[C@H](C)C(=O)N(C)[C@@H](CC(C)C)C(=O)O[C@H](Cc2ccc(Cc3cccnc3C(F)(F)F)cc2)C(=O)N(C)[C@@H](CC(C)C)C(=O)O[C@H](C)C(=O)N1C` [Example 3-238, (3S,6R,9S,12R,15S,18R,21S,24R)-3,9,15,21-tetraisobutyl-4,6,10,16,18,22-hexamethyl-12,24-bis(4-((2-(trifluoromethyl)pyridin-3-yl)methyl)benzyl)-1,7,13,19-tetraoxa-4,10,16,22-tetraazacyclotetracosan-2,5,8,11,14,17,20,23-octaone], the minimal effective concentration [1] was 0.002 µM, the minimal effective concentration (D. immitis L4 larvae) was 0.0001 µM and the DiMf/DiL4 (D. immitis L4 larvae) was 20. The minimal effective concentration [2, 4] was greater than 5 µM.

`Cc1ccc(Cc2ccc(C[C@H]3OC(=O)[C@H](CC(C)C)N(C)C(=O)[C@@H](C)OC(=O)[C@H](CC(C)C)N(C)C(=O)[C@@H](Cc4ccc(Cc5ccc(C)nc5C)cc4)OC(=O)[C@H](CC(C)C)N(C)C(=O)[C@@H](C)OC(=O)[C@H](CC(C)C)N(C)C3=O)cc2)c(C)n1` [Example 3-240, (3S,6R,9S,12R,15S,18R,21S,24R)-6,18-bis(4-((2,6-dimethylpyridin-3-yl)methyl)benzyl)-3,9,15,21-tetraisobutyl-4,10,12,16,22,24-hexamethyl-1,7,13,19-tetraoxa-4,10,16,22-tetraazacyclotetracosan-2,5,8,11,14,17,20,23-octaone] showed a minimal effective concentration [1] of 0.02 µM, a minimal effective concentration (D. immitis L4 larvae) of 0.001 µM and a DiMf/DiL4 (D. immitis L4 larvae) of 20. The minimal effective concentration [2, 4] was 5.7 µM.

With `Cc1[nH]ncc1Cc1ccc(C[C@H]2OC(=O)[C@H](CC(C)C)N(C)C(=O)[C@@H](C)OC(=O)[C@H](CC(C)C)N(C)C(=O)[C@@H](Cc3ccc(Cc4cn[nH]c4C)cc3)OC(=O)[C@H](CC(C)C)N(C)C(=O)[C@@H](C)OC(=O)[C@H](CC(C)C)N(C)C2=O)cc1` [Example 3-243, (3S,6R,9S,12R,15S,18R,21S,24R)-3,9,15,21-tetraisobutyl-4,6,10,16,18,22-hexamethyl-12,24-bis(4-((5-methyl-1H-pyrazol-4-yl)methyl)benzyl)-1,7,13,19-tetraoxa-4,10,16,22-tetraazacyclotetracosan-2,5,8,11,14,17,20,23-octaone] the minimal effective concentration [1] was 0.001 µM, the minimal effective concentration (D. immitis L4 larvae) was 0.001 µM and the DiMf/DiL4 (D. immitis L4 larvae) was 1. The minimal effective concentration [2, 4] was 7.5 µM.

Work on `COc1cnc(C(C)(F)c2ccc(C[C@H]3OC(=O)[C@H](CC(C)C)N(C)C(=O)[C@@H](C)OC(=O)[C@H](CC(C)C)N(C)C(=O)[C@@H](Cc4ccc(C(C)(F)c5cnc(OC)cn5)cc4)OC(=O)[C@H](CC(C)C)N(C)C(=O)[C@@H](C)OC(=O)[C@H](CC(C)C)N(C)C3=O)cc2)cn1` (stereo partly drawn) [Example 3-252, (3S,6R,9S,12R,15S,18R,21S,24R)-6,18-bis(4-(1-fluoro-1-(5-methoxypyrazin-2-yl)ethyl)benzyl)-3,9,15,21-tetraisobutyl-4,10,12,16,22,24-hexamethyl-1,7,13,19-tetraoxa-4,10,16,22-tetraazacyclotetracosan-2,5,8,11,14,17,20,23-octaone] yielded a minimal effective concentration [1] of 0.02 µM, a minimal effective concentration (D. immitis L4 larvae) of 0.0007 µM and a DiMf/DiL4 (D. immitis L4 larvae) of 28.6. The minimal effective concentration [2, 4] was greater than 42 µM.

With `CCn1nccc1Cc1ccc(C[C@H]2OC(=O)[C@H](CC(C)C)N(C)C(=O)[C@@H](C)OC(=O)[C@H](CC(C)C)N(C)C(=O)[C@@H](Cc3ccc(Cc4ccnn4CC)cc3)OC(=O)[C@H](CC(C)C)N(C)C(=O)[C@@H](C)OC(=O)[C@H](CC(C)C)N(C)C2=O)cc1` [Example 3-253, (3S,6R,9S,12R,15S,18R,21S,24R)-6,18-bis(4-((1-ethyl-1H-pyrazol-5-yl)methyl)benzyl)-3,9,15,21-tetraisobutyl-4,10,12,16,22,24-hexamethyl-1,7,13,19-tetraoxa-4,10,16,22-tetraazacyclotetracosan-2,5,8,11,14,17,20,23-octaone] the minimal effective concentration [1] was 0.0003 µM, the minimal effective concentration (D. immitis L4 larvae) was 0.001 µM and the DiMf/DiL4 (D. immitis L4 larvae) was 0.3. For the same compound, the minimal effective concentration [2, 3] was less than 1 µM, the minimal effective concentration [2, 4] was 1 µM and the minimal effective concentration ([2]; read-out: HcL3 MED, approximately 96 hours incubation, multiple-resistant field isolate) was no more than 1 µM.
